A short description of series [1]: Transmetallation kinetics: stability of Gd(III) complex in presence of Zn(II) ions, ICP/MS. Type of series: physicochemical. The settings on record: 1 mM complex, 250 mM ZnCl2 in phosphate buffer, 0 to 48 hours. On the procedure: In vivo, the transmetallation of the Gd complex occurs because Gd^3+ ions compete with other endogenous cations and endogenous anions that destabilize the gadolinium complex and shift the dissociation equilibrium toward its free components. For this reason, the in vitro stability of the Gd(III) complex should be investigated in the presence of Zn(II) ions. 8 μL of a solution of 250 mM ZnCl2 in phosphate buffer was added to 1.5 mL of 1 mM Gd-DOTA-click-SF complex and the mixture was stirred. Thereafter, the solution was collected at 0, 2, 4, 6, 8, 24, and 48 hours and filtered. […] To compare the stability of Gd-DOTA-click-SF with that the clinical contrast agent Dotarem, the same procedure was repeated three times.

Series [2] can be described thus: In vitro molar longitudinal relaxivity (r1), 3.0T MRI, inversion recovery method. The format is physicochemical. The settings on record: 25° C., concentrations 0.01, 0.02, 0.04, 0.06, 0.08, and 0.1 mM. How it is done:
(§1) To obtain quantitative information on the efficacy of the Gd-DOTA-click-SF probe and Dotarem as MRI contrast agents, the molar longitudinal relaxivities (r1) thereof were analyzed. At 25° C., 3.0T MRI was performed using the inversion recovery method, and 9.4T MRI was performed using the RARE (Rapid Acquisition with Refocused Echoes) method.

The next series has as its system endothelial C166 cells. Briefly: In vitro cell viability, CCK-8 assay. The format is cell-based. The note with it: 0.01 to 0.1 mM, 24 hours. On the procedure:
The cytotoxicity of the Gd-DOTA click-SF probe was assessed against macrophage RAW264.7 cells and endothelial C166 cells using the CCK-8 assay according to the instructions provided by the manufacturer. RAW264.7 cells and endothelial C166 cells were cultured in DMEM containing 10% FBS and 1% penicillin-streptomycin (10000 U/ml). 2.5×10^4 RAW 264.7 cells and 3×10^3 C166 cells per well in 100 μL of DMEM well were seeded in 96-well plates. The cells were cultured at 37° C. for 24 hours in a humidified atmosphere containing 5% CO2, and then for comparison, each of the Gd-DOTA-click-SF probe and Dotarem was added thereto at concentrations of 0.01, 0.025, 0.05, 0.075, and 0.1 mM, followed by incubation at 37° C. for 24 hours. Thereafter, the cells were treated with 10 μl of CCK-8 solution and further cultured for 2 hours at 37° C., and the absorbance of each well was measured at 450 nm using a microplate reader.

For another series, the system named is elastase activity. Description: Ex vivo T1-weighted MRI, CNR and ICP/MS gadolinium content of aortas from rats with induced abdominal aortic aneurysm (AAA) and from healthy rats. Details: species or system Sprague-Dawley (SD) rats. The settings on record: for T1-signal intensity in T1-weighted MRI: immersed at 1.28 mM for 1 hour, washed 3 times with PBS. The source says: As experimental animals, 7-week-old Sprague-Dawley (SD) rats were used. The rats were maintained on a 12-hour light-dark cycle with free access to water and feed for one week of acclimatization. Then, the rats were randomly divided into a normal control group and an experimental group (aortic aneurysm group), and each group was further divided into a Dotarem-administered group and a Gd-DOTA-click-SF-administered group. Accordingly, the rats were divided into a total of 4 groups, each consisting of 4 animals.
To induce an abdominal aortic aneurysm, rats were anesthetized by inhalation with 2 to 2.5% isoflurane, and then their abdomen was incised to expose the aortic branches. Next, 300 μL of 12U porcine pancreatic elastase was perfused for 10 minutes.
After 5 weeks, the aorta with induced abdominal aortic aneurysm was harvested, immersed in Dotarem or the Gd-DOTA-click-SF of the present disclosure at 1.28 mM for 1 hour under shaking. Then, it was taken out and washed 3 times with PBS. Finally, the samples were placed in PCR tubes filled with PBS and were examined by T1-weighted MRI. The same procedure was also applied to the aorta from the healthy normal control group, which was immersed in Dotarem or the Gd-DOTA-click-SF of the present disclosure at 1.28 mM for 1 hour under shaking. Then, it was taken out and washed 3 times with PBS. Finally, the samples were placed in PCR tubes filled with PBS and were examined by T1-weighted MRI.
The CNRs of the MRI results for the four groups, identified in Example 7, were examined, and the concentrations of gadolinium were measured using ICP/MS (ICP/MS 7700, Agilent, USA).

A short description of series [3]: In vitro molar longitudinal relaxivity (r1), 9.4T MRI, RARE method. Type of series: physicochemical. The settings on record: 25° C. On the procedure:
as §1

The structures appear in SMILES notation. Several values for one entry are separate records, joined by “and”; a condition that tells them apart may be missing. Equal values may be shown once.

This is an account of results in patent US20240165127A1, “CONTRAST AGENT FOR DIAGNOSIS OF VASCULAR DISEASE CONTAINING GADOLINIUM-BASED COMPOUND AS ACTIVE INGREDIENT AND SYNTHESIS METHOD THEREFOR” (DAEGU CATHOLIC UNIVERSITY INDUSTRY ACADEMIC COOPERATION …, priority 2022, published 2024).

On to `CNC[C@H](O)[C@@H](O)[C@H](O)[C@H](O)CO.O=C([O-])CN1CCN(CC(=O)[O-])CCN(CC(=O)O)CCN(CC(=O)[O-])CC1.[Gd+3]` [Dotarem], for which the “stability of Gd(III) complex (kinetic inertness, transmetallation)” value in series [1] is given as “very stable in the presence of Zn(II) ions without transmetallation”. In series [2], the “3.0T r1 (molar longitudinal relaxivity)” value is 2.105 mM^−1s^−1 and 2.211^a mM^−1s^−1. For the same compound, the “cell viability / cytotoxicity” value in the series with endothelial C166 cells was “non-cytotoxic”. In addition, the “T1-signal intensity in T1-weighted MRI” value in the series on elastase activity (AAA aorta ex vivo) and in the series with elastase activity (healthy normal aorta ex vivo) was “did not show high signal intensity” each time. In addition, in the series with elastase activity (ex vivo aortas, after washing with PBS), the “binding to the arterial wall” value is listed as “very low”. The “9.4T r1 (molar longitudinal relaxivity)” value in series [3] (concentrations 0.01, 0.02, 0.04, 0.06, 0.08, and 0.1 mM) was 4.647 mM^−1s^−1 and 4.647^a mM^−1s^−1; in series [3] (concentrations 0.04, 0.08, 0.16, 0.32, and 0.64 mM), 5.064 mM^−1s^−1 and 5.064^b mM^−1s^−1.
